For ten molecules, IC50 results are on record in patent US9913843B2, “Protein kinase C inhibitors and uses thereof” (Rigel Pharmaceuticals, Inc., priority 2012, dated 2018).

Like-named read-outs stand apart in the source and are kept apart here. Where only a bound is given, the exact number is not on record here.

This assay relates to PKC mediated IL-2 production in human primary T cells. Nature of the assay: IL-2 ELISA, human primary T cell, anti CD3+CD28+ (whole cell functional assay for PKC mediated IL-2 production). Type of assay: cell-based. As for the experimental part:
Human primary T cells were prepared as follows. Fresh PBMC's from All Cells (Cat # PB002) were re-suspended in RPMI (RPMI-1640 with L-Glutamine; Mediatech, Inc., Herndon Va., cat. #10-040-CM) with 10% FBS and seeded into flasks and incubated at 37° C. for 2 hours to allow the monocytes to adhere. The non-adherent cells were then centrifuged and re-suspended in RPMI medium containing 40 U/ml IL2 and seeded into a flask pre-coated with 1 μg/ml aCD3 and 5 ug/ml aCD28 (Anti-Human CD3, BD Pharmingen Catalog #555336, Anti-Human CD28, Beckman Coulter Catalog #IM1376). The cells were stimulated for 3-4 days, then transferred to a fresh flask and maintained in RPMI (RPMI-1640 with L-Glutamine; Mediatech, Inc., Herndon Va., cat. #10-040-CM) with 10% FBS and 40 U/ml IL-2.
Human primary T cells (100,000 cells per well) were pre-incubated with or without test compound in RPMI-1640 with L-Glutamine and 10% FBS for 1 hour at 37° C. Cells were then stimulated by transferring them to round-bottom 96-well plates pre-coated with 1 μg/ml aCD3 and 5 μg/ml aCD28. For counter assay, cells were instead stimulated by adding 8× stock solutions of PMA and ionomycin in RPMI-1640 with L-Glutamine and 10% FBS (for final concentrations of 0.5 ng/ml PMA and 0.1 μM ionomycin, both from Calbiochem). Cells were incubated at 37° C. for 24 hours before 100 μL supernatants were harvested for quantification of IL-2 by ELISA using Human IL-2 Duoset ELISA Kit from R and D Systems, Cat. # DY202E.
Compounds 1-156 were tested in a whole cell functional assay for PKC mediated IL-2 production as follows. Human primary T cell isolation and culture: Human primary T cells were prepared as follows. Whole blood was obtained from a healthy volunteer, mixed 1:1 with PBS, layered on to Ficoll Hypaque (Amersham Pharmacia Biotech, Piscataway, N.J., Catalog #17-1440-03) in 2:1 blood/PBS:ficoll ratio and centrifuged for 30 minutes at 4° C. at 1750 rpm. The cells at the serum: ficoll interface were recovered and washed twice with 5 volumes of PBS. These freshly isolated human peripheral blood mononuclear cells were cultured in Yssel's medium containing 40 U/ml IL2 in a flask pre-coated with 1 μg/ml aCD3 and 5 μg/ml aCD28 (Anti-Human CD3, BD Pharmingen Catalog #555336, Anti-Human CD28, Beckman Coulter Catalog #IM1376). The cells were stimulated for 3-4 days, then transferred to a fresh flask and maintained in RPMI (RPMI-1640 with L-Glutamine; Mediatech, Inc., Herndon Va., cat. #10-040-CM) with 10% FBS and 40 U/ml IL-2. The primary T-cells were then washed twice with PBS to remove the IL-2.
Primary T cell stimulation and IL2 ELISA: Human primary T cells (100,000 cells per well) were pre-incubated with or without test compound in Yssel's medium for 1 hour at 37° C. Cells were then stimulated by transferring them to round-bottom 96-well plates pre-coated with 1 μg/ml aCD3 and 5 μg/ml αCD28. For counter assay, cells were instead stimulated by adding 8× stock solutions of PMA and ionomycin in Yssels (for final concentrations of 0.5 ng/ml PMA and 0.1 uM ionomycin, both from Calbiochem). Cells were incubated at 37° C. for 24 hours before 100 μL supernatants were harvested for quantification of IL-2 by ELISA using Human IL-2 Duoset ELISA Kit from R and D Systems, Cat. # DY202E.
For orientation: In an ELISA, binding on a coated surface is turned into a signal by an enzyme label.

The mark [1] stands for this setting: 24 h, human primary T cells stimulated with anti-CD3 + anti-CD28, IL-2 by ELISA, read-out: IC50 for blocking IL-2 production.
The mark [2] stands for this setting: human primary T cells stimulated with anti-CD3 + anti-CD28, 24 h, IL-2 by ELISA, 8 pt, read-out: IL2 ELISA, Human primary T cell, anti-CD3 + CD28, 8 pt (IC50).

As to `Fc1cnc(Nc2ccc3c(c2)OC(F)(F)C(F)(F)O3)nc1NC[C@@H]1CCCN2CCCC[C@H]12` [Compound 20, 5-fluoro-N2-(2,2,3,3-tetrafluoro-2,3-dihydrobenzo[b][1,4]dioxin-7-yl)-N4-(((1S,9aR)-octahydro-1H-quinolizin-1-yl)methyl)pyrimidine-2,4-diamine], the IC50 by setting is: under setting [1], < 30000 nM; under setting [2], 1080 nM.
For `COc1cc(F)cc(Nc2ncc(F)c(NC[C@@H]3CCCN4CCCC[C@H]34)n2)c1` [Compound 21, 5-fluoro-N2-(3-fluoro-5-methoxyphenyl)-N4-(((1S,9aR)-octahydro-1H-quinolizin-1-yl)methyl)pyrimidine-2,4-diamine] the same measures were < 30000 nM and 702 nM.
For the molecule `COc1ccc(Nc2ncc(F)c(NC[C@@H]3CCCN4CCCC[C@H]34)n2)cc1-c1cnco1` [Compound 22, 5-fluoro-N4-(((1S,9aR)-octahydro-1H-quinolizin-1-yl)methyl)-N2-(4-methoxy-3-(oxazol-5-yl)phenyl)pyrimidine-2,4-diamine], the IC50 runs as follows: under setting [1], < 30000 nM; under setting [2], 697 nM.
For the molecule `Cc1nnnn1-c1cc(Nc2ncc(F)c(NC[C@@H]3CCCN4CCCC[C@H]34)n2)c(F)cc1C1CC1` [Compound 23, N2-(4-cyclopropyl-2-fluoro-5-(5-methyl-1H-tetrazol-1-yl)phenyl)-5-fluoro-N4-(((1S,9aR)-octahydro-1H-quinolizin-1-yl)methyl)pyrimidine-2,4-diamine], the IC50 by setting is: under setting [1], < 30000 nM; under setting [2], 66.3 nM.
As to `O=S1(=O)CCCN1c1cc(Nc2ncc(F)c(NC[C@@H]3CCCN4CCCC[C@H]34)n2)ccc1F` [Compound 24, N2-[3-(1,1-dioxo-isothiazolidin-2-yl)-4-fluoro-phenyl]-5-fluoro-N4-(((1S,9aR)-octahydro-1H-quinolizin-1-yl)methyl)-pyrimidine-2,4-diamine], the IC50 is < 30000 nM under setting [1] and 3450 nM under setting [2].
Take `CC1(C)Oc2cc(Nc3ncc(F)c(NC[C@@H]4CCCN5CCCC[C@H]45)n3)ccc2N(CCCF)C1=O` [Compound 25, 7-(4-(((1S,9aR)-octahydro-1H-quinolizin-1-yl)methylamino)-5-fluoropyrimidin-2-ylamino)-4-(3-fluoropropyl)-2,2-dimethyl-2H-benzo[b][1,4]oxazin-3(4H)-one]: the half-maximal inhibitory concentration (IC50) runs as follows: under setting [1], < 30000 nM; under setting [2], 853 nM.
For `O=C1COc2cc(Nc3ncc(F)c(NC[C@@H]4CCCN5CCCC[C@H]45)n3)ccc2N1CC1CC1` [Compound 26, 7-(4-(((1S,9aR)-octahydro-1H-quinolizin-1-yl)methylamino)-5-fluoropyrimidin-2-ylamino)-4-(cyclopropylmethyl)-2H-benzo[b][1,4]oxazin-3(4H)-one] the same measures were < 30000 nM and 169 nM.
For `CCN1C(=O)C(F)(F)Oc2cc(Nc3ncc(F)c(NC[C@@H]4CCCN5CCCC[C@H]45)n3)cnc21` [Compound 27, 7-(4-(((1S,9aR)-octahydro-1H-quinolizin-1-yl)methylamino)-5-fluoropyrimidin-2-ylamino)-4-ethyl-2,2-difluoro-2H-pyrido[3,2-b][1,4]oxazin-3(4H)-one], in that order: < 30000 nM and 652 nM.
For `Cn1nnnc1Oc1cc(Nc2ncc(F)c(NC[C@@H]3CCCN4CCCC[C@H]34)n2)c(F)cc1C1CC1` [Compound 28, N2-(5-(1-methyl-1H-tetrazol-5-yloxy)-4-cyclopropyl-2-fluorophenyl)-5-fluoro-N4-(((1S,9aR)-octahydro-1H-quinolizin-1-yl)methyl)pyrimidine-2,4-diamine] the same measures were < 30000 nM and 1820 nM.
Turning to `Fc1ccc(S(F)(F)(F)(F)F)cc1Nc1ncc(F)c(NC[C@@H]2CCCN3CCCC[C@H]23)n1` [Compound 29, 5-fluoro-N2-(3-pentafluorosulfanyl-6-fluoro-phenyl)-N4-(((1S,9aR)-octahydro-1H-quinolizin-1-yl)methyl)pyrimidine-2,4-diamine], the IC50 by setting is: under setting [1], < 30000 nM; under setting [2], 1800 nM.

By IC50 is commonly meant the concentration that inhibits the measured activity by half.
